Results reported in patent publication US20180346731A1, “Formation of Stable Pyranoanthocyanins, and Uses Thereof as Sources of Natural Color” (Ohio State Innovation Foundation, priority 2017, published 2018).

Experiments:
[1] = Colorimetry (CIEL*c*h*, ΔE) of pigment solutions with ascorbic acid; type: physicochemical
Protocol: (§1) The semi-purified chokeberry extract, the isolated cyanidin-3-galactoside, and the purified 5-carboxypyranocyanidin-3-galactoside were diluted in pH 3.0 citrate buffer (0.1 M adjusted with HCl) until an absorbance of 1.0 at their respective λmax was reached. Levels of AA of 250, 500, and 1000 mg/L were added using a concentrated ascorbic acid stock solution, and a control consisting of each pigment with the absence of AA was maintained. The control consisted of the pigment in the buffer in the absence of AA. An additional test was performed with the same model juice using hydrogen peroxide, a known degradation product of AA. To determine if AA bleaching was due to formation of H2O2, direct addition of it was investigated. In place of added AA, a 62.2 μL of a 0.3% peroxide solution was added to match the molar equivalency of the 500 mg/L AA level, which was 2.84 mM.
(§2) All samples were brought to the same final volume with additional citrate buffer. […] Samples were stored in the dark at 25° C. in an incubator. UV-Vis spectrophotometry, colorimetry, and HPLC analyses were conducted over a 5 day period following the addition of ascorbic acid or hydrogen peroxide. UV-Vis spectral data was collected every hour for the first 8 hours, and then at 12 hr, and daily from that point on for 5 days. […] HPLC analyses were conducted on days 0, 1, 3, and 5. All treatments were run in triplicate.
Using UV-Vis spectral data (5 nm steps, 380-700 nm) in combination with software written for color conversion, absorbance data was translated to CIE-L*c*h*. The calculations for CIE-L*c*h* implemented by the software used CIE relative spectral power distribution for a D65 standard illuminants and 10° observer angle function. Color data is reported as L* (lightness), c* (chroma), and h* (hue angle).
Total color changes (ΔE) were calculated as the color change from day 0 to 5 for each respective treatment, and presented in Table 4.
Numbers are means of 3 replications, followed by (standard deviations). ΔE: total color change from day 0 (control) to day 5.

[2] = HPLC monitoring of pigment peaks with ascorbic acid; type: physicochemical
Protocol: Prior to experimentation, pigments were evaluated for purity by using an analytical HPLC only different from the previously listed one by the use of different pumps (LC-20AD, Shimadzu, Md., US). Purified pigments were filtered using the Phenex RC 0.45 μm membranes. A binary system with 1 mL/min flow rate was used: solvent A: 4.5% formic acid in HPLC grade water and solvent B: HPLC grade acetonitrile. The gradient began with an isocratic flow of 6% solvent B for 17 minutes (elution of primary anthocyanins), increasing to 15% solvent B by 45 minutes (elution of primary pyranoanthocyanins), and to 40% solvent B by 50 minutes. A 10 μL injection volume was loaded onto a Phenomenex Kinetix 5 μm EVO C18 100 A. 150×4.6 mm column and Phenomenex Ultra UHPLC EVO C18 guard cartridge attached.
as §1, §2
Prepared solutions were monitored to determine the formation of potential degradation products or profile changes. Using the analytical HPLC system and conditions described, chromatograms were monitored with the max plot (260-700 nm), 490 nm (near λmax of 5-carboxypyranocyanidin-3-galactoside), and 520 nm (near ma of cyanidin-3-galactoside). A max plot of 470-520 nm was later added to standardize changes in the AUC for all three pigments and their degradation products.

[3] = 1000 mg/L AA, listed as cyanidin-3-galactoside

OC[C@H]1O[C@@H](Oc2cc3c(O)cc(O)cc3[o+]c2-c2ccc(O)c(O)c2)[C@H](O)[C@@H](O)[C@H]1O [Cyanidin-3-galactoside, cyanidin-3-galactoside]
Chroma Day 0 ([1]; 250 mg/L AA): 50.8 (0.2) | Chroma Day 5 ([1]; 250 mg/L AA): 13.9 (0.7) | Hue Angle Day 0 ([1]; 250 mg/L AA): 18.7 (0.1) ° | Hue Angle Day 5 ([1]; 250 mg/L AA): 21.9 (1.2) ° | Lightness Day 0 ([1]; 250 mg/L AA): 77.5 ( ).2) | Lightness Day 5 ([1]; 250 mg/L AA): 93.2 (0.3) | ΔE Over 5 days ([1]; 250 mg/L AA): 19.3 (0.3) | Chroma Day 0 ([1]; 500 mg/L AA): 51.8 (0.0) | Chroma Day 5 ([1]; 500 mg/L AA): 10.5 (0.4) | Hue Angle Day 0 ([1]; 500 mg/L AA): 18.8 (0.0) ° | Hue Angle Day 5 ([1]; 500 mg/L AA): 51.1 (2.7) ° | Lightness Day 0 ([1]; 500 mg/L AA): 77.0 (0.1) | Lightness Day 5 ([1]; 500 mg/L AA): 94.4 (0.6) | ΔE Over 5 days ([1]; 500 mg/L AA): 23.6 (0.2) | Chroma Day 0 ([1]; 1000 mg/L AA): 50.9 (0.1) | Chroma Day 5 ([1]; 1000 mg/L AA): 13.7 (1.8) | Hue Angle Day 0 ([1]; 1000 mg/L AA): 18.7 (0.1) ° | Hue Angle Day 5 ([1]; 1000 mg/L AA): 77.5 (4.5) ° | Lightness Day 0 ([1]; 1000 mg/L AA): 77.2 (0.3) | Lightness Day 5 ([1]; 1000 mg/L AA): 94.5 (0.7) | ΔE Over 5 days ([1]; 1000 mg/L AA): 27.6 (0.7) | L* after 48 hours ([1]; 1000 mg/L AA, 48 hours): 96.4 | Hue Angle Day 0 [1, 3]: 18.7 ° | Hue Angle Day 5 [1, 3]: 77.5 ° | Lightness Day 0 [1, 3]: 77.2 | ΔE Over 5 days [1, 3]: 27.6 | Chroma Day 0 ([1]; Control, no AA): 51.2 (0.2) | Chroma Day 5 ([1]; Control, no AA): 46.5 (2.1) | Hue Angle Day 0 ([1]; Control, no AA): 18.6 (0.1) ° | Hue Angle Day 5 ([1]; Control, no AA): 15.9 (1.0) ° | Lightness Day 5 ([1]; Control, no AA): 79.4 | ΔE Over 5 days ([1]; Control, no AA): 2.6 (1.1) | Lightness Day 0 ([1]; Control, no AA, mean (SD), n=3): 77.3 (0.1) | time until significant change in chroma as compared to the control ([1]; all levels of AA): 2 h | initial hue angle ([1]; day 0): 16.6 ° | target peaks left after 1 day ([2]; 1000 mg/L AA, HPLC): 2% | reduction of pigment peak by day 1 ([2]; 1 g/L AA, HPLC AUC): 91% | reduction of pigment peak by day 5 ([2]; 1 g/L AA, HPLC AUC): > 99%
